In patent publication US20260034094A1, “COMPOSITIONS AND METHODS FOR INDUCING FERROPTOSIS” (Kojin Therapeutics, Inc., priority 2022, published 2026):
Read-outs that look alike come from different tables or passages of the source.

Experiments:
RKN cells = experiment: RKN cell profiling assay (cell viability, CellTiter-Glo); assay type: cell-based
Procedure: RKN cells were suspended in assay medium (F-12 medium supplemented with 10% FBS and penicillin/streptomycin) and seeded at 1,000 cells per well (30 μL total volume) in opaque white 384-well plates (Corning). Cells were allowed to adhere for 24 h at 37° C. (95% humidity, 5% CO2) and then exposed to compounds disclosed herein for 72 h, or in the present case, 96 h. DMSO stock solutions of compounds were added to cells using a D300e Digital Dispenser (Tecan). The final DMSO concentration in each well was normalized to 0.5% (v/v) after compound treatment. Cell viability was measured using CellTiter-Glo (Promega). After incubation for 15 min at room temperature, luminescence was measured using a PHERAstar FSX microplate reader (BMG Labtech). Ferroptosis rescue experiments were performed as described previously using cells treated with ferrostatin-1 (fer-1, 1.5 μM) when seeding assay plates. Dose-response data were analyzed to determine EC50 values with GraphPad Prism 9 software using a four-parameter logistic equation or CDD Vault (Collaborative Drug Discovery) using the Levenberg-Marquardt algorithm.

human recombinant GCL = human recombinant GCL (Homo sapiens (Human), UniProt P48506); experiment: GCL enzyme profiling assay (ADP-Glo luminescence); assay type: biochemical; conditions: read-out: GCL IC50
human recombinant GCL, sequence (P48506 whole entry): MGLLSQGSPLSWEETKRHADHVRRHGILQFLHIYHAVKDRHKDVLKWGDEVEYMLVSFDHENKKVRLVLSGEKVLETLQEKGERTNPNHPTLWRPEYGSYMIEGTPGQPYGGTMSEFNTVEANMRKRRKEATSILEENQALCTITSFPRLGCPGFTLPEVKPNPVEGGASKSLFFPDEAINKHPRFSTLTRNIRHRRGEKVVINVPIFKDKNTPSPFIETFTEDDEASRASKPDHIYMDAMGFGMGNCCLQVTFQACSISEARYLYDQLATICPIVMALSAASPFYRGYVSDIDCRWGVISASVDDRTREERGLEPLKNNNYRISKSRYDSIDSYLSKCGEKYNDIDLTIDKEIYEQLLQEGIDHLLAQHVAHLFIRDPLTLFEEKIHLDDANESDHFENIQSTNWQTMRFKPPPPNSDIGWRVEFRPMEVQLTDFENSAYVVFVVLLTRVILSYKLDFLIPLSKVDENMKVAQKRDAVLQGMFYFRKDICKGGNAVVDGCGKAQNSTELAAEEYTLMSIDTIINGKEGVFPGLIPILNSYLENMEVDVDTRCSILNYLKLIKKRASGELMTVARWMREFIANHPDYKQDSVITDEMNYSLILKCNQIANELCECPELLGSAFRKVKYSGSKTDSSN
Procedure: The GCL enzyme assay was run in 50 mM HEPES, pH 7.5, containing 150 mM NaCl, 30 mM MgCl2, 0.5 mM EDTA, 1 mM DTT, 0.1 mg/mL BSA, and 0.02% or in the present case 0.2% F-127 in a total assay volume of 10 μL or 10 mL. Compound in pure DMSO was stamped in assay plates (Greiner black 384-well) or appropriate containers using a D300e digital dispenser (TECAN) and the final DMSO concentration was normalized to 1%. A 5 mL, or in the present case, 5 μL mixture of human recombinant GCL (final concentration: 5 nM) and ATP (final concentration: 0.6 mM) was added and the solution was incubated at room temperature (22° C.) for 1 h. The GCL enzyme reaction was initiated by addition of a 5 μL mixture of mono g-glutamate or in the present example, monosodium glutamate (final concentration: 1 mM) and a-aminobutyrate or α-aminobutyrate (final concentration: 1.2 mM). The reaction was stopped after 1 h or in the present case, 2 h by addition of 5 mL, or in the present case, 5 μL ADP GLO Reagent (Promega). The resulting solution was incubated for 2 h at room temperature. This was then followed by addition of 5 mL, or in the present case, 5 μL ADP GLO Detection. After incubation at room temperature for 30 min, the plates were read on a plate reader (PheraStar) using a luminescence protocol to quantify the GCL enzyme activity from each reaction solution. The data was analyzed using a four-parameter logistic equation to calculate IC50.

[1] = cell viability, read-out: Cell Killing EC50
[2] = 96 h, 96 h exposure, read-out: Cell Killing EC50
[3] = human recombinant GCL 5 nM, 1 h preincubation with ATP

Row | Structure (SMILES) | EC50 (RKN cells; [1]) | also measured
1 | N=S(=O)(CC[C@H](N)C(=O)O)CCC(O)(C1CCCC1)C(F)(F)F (some centres unmarked) [Compound 356] | ≥ 1 mM | IC50 (human recombinant GCL; human recombinant GCL, ADP-Glo): 20 to 2000 µM
2 | N=S(=O)(CCc1ccccc1C(F)(F)F)CC[C@H](N)C(=O)O (some centres unmarked) [Compound 15] |  | EC50 (RKN cells; [2]): ≥ 1 mM; EC50 (RKN cells; 96 h, 96 h exposure, read-out: Cell Killing EC50 (mM), individual values in parentheses): 1.2 mM; EC50 (RKN cells; 96 h exposure, read-out: Cell Killing EC50 (mM), individual values in parentheses): 0.97 mM; IC50 (human recombinant GCL; [3]): ≤ 20 µM
3 | N=S(=O)(CC[C@H](N)C(=O)O)CCC(O)(c1ncccn1)C(F)(F)F (some centres unmarked) [Compound 363] | < 1 mM | IC50 (human recombinant GCL; human recombinant GCL, ADP-Glo): 20 to 2000 µM
4 | N=S(=O)(CCC1C2CC3CC(C2)CC1C3)CC[C@H](N)C(=O)O (some centres unmarked) [Compound 143] |  | EC50 (RKN cells; [2]): ≥ 1 mM; IC50 (human recombinant GCL; [3]): 20 to 2000 µM
5 | N[C@@H](CCS(=O)(=O)CCC(O)(c1ccc(-c2ccc(Cl)cc2Cl)cc1)C(F)(F)F)C(=O)O (stereo partly drawn) [Compound 427, (2S)-2-amino-4-((3-(2′, 4′-dichloro-[1, 1′-biphenyl]-4-yl)-4,4,4-trifluoro-3-hydroxybutyl)sulfonyl) butanoic acid] | ≥ 1 mM | IC50 (human recombinant GCL; human recombinant GCL, ADP-Glo): 20 to 2000 µM
6 | N=S(=O)(CCC(c1ccc(-c2cc(Cl)cc(Cl)c2)cc1)C(F)(F)F)CC[C@H](N)C(=O)O (some centres unmarked) [Compound 234] | ≥ 1 mM | IC50 (human recombinant GCL; human recombinant GCL, ADP-Glo): ≤ 20 µM
7 | N#Cc1cc(-c2ccc(C(O)(CCS(=N)(=O)CC[C@H](N)C(=O)O)C(F)(F)F)cc2)ccc1O (some centres unmarked) [Compound 454] | ≥ 1 mM | IC50 (human recombinant GCL; human recombinant GCL, ADP-Glo): ≤ 20 µM
8 | N=S(=O)(CC[C@H](N)C(=O)O)CCC(O)(c1ccc(Oc2ccccc2)cn1)C(F)(F)F (some centres unmarked) [Compound 372] | < 1 mM | IC50 (human recombinant GCL; human recombinant GCL, ADP-Glo): ≤ 20 µM
9 | N[C@@H](CCS(=O)(=O)NCC(O)(c1ccc(-c2ccc(Cl)cc2Cl)cn1)C(F)(F)F)C(=O)O (stereo partly drawn) [Compound 513, (2S)-2-amino-4-(N-(2-(5-(2,4-dichlorophenyl)pyridin-2-yl)-3,3,3-trifluoro-2-hydroxypropyl)sulfamoyl)butanoic acid] | ≥ 1 mM | IC50 (human recombinant GCL; human recombinant GCL, ADP-Glo): ≤ 20 µM
10 | COC(=O)[C@@H](N)CCS(=N)(=O)CCCc1ccccc1 (stereo partly drawn) [Compound 70, (2S)-methyl 2-amino-4-(3-phenylpropylsulfonimidoyl)butanoate] |  | EC50 (RKN cells; [2]): ≥ 1 mM; IC50 (human recombinant GCL; [3]): 20 to 2000 µM
11 | CC(COC(=O)c1ccccc1)OC(=O)[C@@H](N)CCS(=N)(=O)CCC(C)(C)C (some centres unmarked) [Compound 98] |  | IC50 (human recombinant GCL; [3]): 20 to 2000 µM
12 | Cc1ccccc1OCCS(=N)(=O)CC[C@H](N)C(=O)O (some centres unmarked) [Compound 14] |  | IC50 (human recombinant GCL; [3]): 20 to 2000 µM
13 | N=S(=O)(CCC1CCO1)CC[C@H](N)C(=O)O (some centres unmarked) [Compound 304] |  | IC50 (human recombinant GCL; human recombinant GCL, ADP-Glo): 20 to 2000 µM
14 | N=S(=O)(CCCc1cn[nH]c1)CC[C@H](N)C(=O)O (stereo partly drawn) [Compound 50, (2S)-4-(3-(1H-pyrazol-4-yl)propylsulfonimidoyl)-2-aminobutanoic acid] |  | IC50 (human recombinant GCL; [3]): 20 to 2000 µM
15 | C#CCNC(=O)[C@@H](N)CCS(=N)(=O)CCCC (some centres unmarked) [compound 493] |  | IC50 (human recombinant GCL; human recombinant GCL, ADP-Glo): > 2000 µM
16 | N=S(=O)(CC[C@H](N)C(=O)O)CCn1ccnc1 (some centres unmarked) [Compound 7] |  | IC50 (human recombinant GCL; [3]): > 2000 µM
17 | N=S(=O)(CCC(c1cccc2ccccc12)C(F)(F)F)CC[C@H](N)C(=O)O (some centres unmarked) [Compound 311] | < 1 mM | 
18 | N[C@@H](CCS(=O)(=O)CCC(O)(c1ncc(-c2ccc(Cl)cc2Cl)cn1)C(F)(F)F)C(=O)O (some centres unmarked) [Compound 470] | ≥ 1 mM | 
19 | Cc1ccc(-c2ccc(C(O)(CCS(=N)(=O)CC[C@H](N)C(=O)O)C(F)(F)F)cc2)c(Cl)c1 (some centres unmarked) [Compound 432] | < 1 mM | 
20 | N=S(=O)(CCC(c1ccc(-c2ccccc2C(F)(F)F)cc1)C(F)(F)F)CC[C@H](N)C(=O)O (some centres unmarked) [Compound 267] | < 1 mM | 
21 | N=S(=O)(CC[C@H](N)C(=O)O)CCC(O)(c1ccc(Oc2ccc(Cl)cc2Cl)cc1)C(F)(F)F (some centres unmarked) [Compound 342] | < 1 mM | 
22 | N=[S@](=O)(CC[C@H](N)C(=O)O)CCC(O)(c1ccccc1)C(F)(F)F (single isomer, unassigned) [Compound 346] | ≥ 1 mM | 

Row | Structure (SMILES) | EC50 (RKN cells; [1]) | also measured
23 | N=S(=O)(CCC(c1ccc(S(=O)(=O)Cc2ccccc2)cc1)C(F)(F)F)CC[C@H](N)C(=O)O (some centres unmarked) [Compound 291] | ≥ 1 mM | 
24 | N=S(=O)(CC[C@H](N)C(=O)O)CCC(O)(c1ccc(-c2ccc(Cl)cc2)cc1)C(F)(F)F (some centres unmarked) [Compound 431] | < 1 mM | 
25 | N=S(=O)(CCC(c1ccc(-c2ccsc2)cc1)C(F)(F)F)CC[C@H](N)C(=O)O (some centres unmarked) [Compound 257] | < 1 mM | 
26 | N=S(=O)(CC[C@H](N)C(=O)O)CCC(O)(c1cccc(-c2ccccc2)c1)C(F)(F)F (some centres unmarked) [Compound 435] | ≥ 1 mM | 
27 | C=Cc1ccc(C(CCS(=N)(=O)CC[C@H](N)C(=O)O)C(F)(F)F)cc1 (some centres unmarked) [Compound 261] | < 1 mM | 
28 | N=S(=O)(CC[C@H](N)C(=O)O)CCC(O)(c1ccc(OC2CCCCC2)cc1)C(F)(F)F (some centres unmarked) [Compound 339] | < 1 mM | 
29 | C#Cc1ccc(C(CCS(=N)(=O)CC[C@H](N)C(=O)O)C(F)(F)F)cc1 (some centres unmarked) [Compound 272] | < 1 mM | 
30 | N=S(=O)(CCC(c1ccc(-c2ccccc2Cl)cc1)C(F)(F)F)CC[C@H](N)C(=O)O (some centres unmarked) [Compound 220] | < 1 mM | 
31 | N=S(=O)(CCC(c1ccc(-c2cccnc2)cc1)C(F)(F)F)CC[C@H](N)C(=O)O (some centres unmarked) [Compound 243] | ≥ 1 mM | 
32 | COc1ccccc1-c1ccc(C(CCS(=N)(=O)CC[C@H](N)C(=O)O)C(F)(F)F)cc1 (some centres unmarked) [Compound 264] | < 1 mM | 
33 | N=S(=O)(CC[C@H](N)C(=O)O)CCC(O)(c1cnc(-c2ccc(Cl)cc2Cl)nc1)C(F)(F)F (some centres unmarked) [Compound 366] | < 1 mM | 
34 | N=S(=O)(CC[C@H](N)C(=O)O)CCC(O)(c1ncc(-c2ccc(Cl)cc2Cl)cn1)C(F)(F)F (some centres unmarked) [Compound 468] | < 1 mM | 
35 | C=C(c1ccc(C(CCS(=N)(=O)CC[C@H](N)C(=O)O)C(F)(F)F)cc1)C(F)(F)F (some centres unmarked) [Compound 260] | ≥ 1 mM | 
36 | N=S(=O)(CC[C@H](N)C(=O)O)CCC(O)(c1ccc(C2CCCCC2)cn1)C(F)(F)F (some centres unmarked) [Compound 476] | < 1 mM | 
37 | N=S(=O)(CCC(c1ccc(-c2ccc3cn[nH]c3c2)cc1)C(F)(F)F)CC[C@H](N)C(=O)O (some centres unmarked) [Compound 255] | ≥ 1 mM | 
38 | N=S(=O)(CCC(c1ccc(-c2ccc(Cl)cc2Cl)cn1)C(F)(F)F)CC[C@H](N)C(=O)O (some centres unmarked) [Compound 317] | < 1 mM | 
39 | CCCCS(=N)(=O)CC[C@H](N)C(=O)NC (some centres unmarked) [Compound 107] |  | EC50 (RKN cells; [2]): ≥ 1 mM
40 | N=S(=O)(CCC(c1ccc(Oc2ccc(Cl)cc2Cl)cc1)C(F)(F)F)CC[C@H](N)C(=O)O (some centres unmarked) [Compound 318] | < 1 mM | 
41 | N=S(=O)(CCC(c1ccc(-c2ccccc2O)cc1)C(F)(F)F)CC[C@H](N)C(=O)O (some centres unmarked) [Compound 235] | < 1 mM | 
42 | Cc1cccc(-c2cccc(C(CCS(=N)(=O)CC[C@H](N)C(=O)O)C(F)(F)F)c2)c1 (some centres unmarked) [Compound 286] | ≥ 1 mM | 
43 | N=S(=O)(CCC(c1ccccc1O)C(F)(F)F)CC[C@H](N)C(=O)O (some centres unmarked) [Compound 397] | < 1 mM | 
44 | N=S(=O)(CCC(c1ccc(-c2ccc(F)cc2Cl)cc1)C(F)(F)F)CC[C@H](N)C(=O)O (some centres unmarked) [Compound 271] | < 1 mM | 
